Reference: ChEMBL document CHEMBL1201862, “PubChem BioAssay data set” (2004)
Active and inactive are the calls of the source.

Legend:
Coagulation factor XII = biological target: T1, Coagulation factor XII (Homo sapiens, UniProt P00748); assay type: functional;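 note: activated factor XIIa alpha cleaving a fluorogenic AMC peptide substrate; inhibitor potency from loss of enzyme activity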
T1 sequence (P00748 whole entry): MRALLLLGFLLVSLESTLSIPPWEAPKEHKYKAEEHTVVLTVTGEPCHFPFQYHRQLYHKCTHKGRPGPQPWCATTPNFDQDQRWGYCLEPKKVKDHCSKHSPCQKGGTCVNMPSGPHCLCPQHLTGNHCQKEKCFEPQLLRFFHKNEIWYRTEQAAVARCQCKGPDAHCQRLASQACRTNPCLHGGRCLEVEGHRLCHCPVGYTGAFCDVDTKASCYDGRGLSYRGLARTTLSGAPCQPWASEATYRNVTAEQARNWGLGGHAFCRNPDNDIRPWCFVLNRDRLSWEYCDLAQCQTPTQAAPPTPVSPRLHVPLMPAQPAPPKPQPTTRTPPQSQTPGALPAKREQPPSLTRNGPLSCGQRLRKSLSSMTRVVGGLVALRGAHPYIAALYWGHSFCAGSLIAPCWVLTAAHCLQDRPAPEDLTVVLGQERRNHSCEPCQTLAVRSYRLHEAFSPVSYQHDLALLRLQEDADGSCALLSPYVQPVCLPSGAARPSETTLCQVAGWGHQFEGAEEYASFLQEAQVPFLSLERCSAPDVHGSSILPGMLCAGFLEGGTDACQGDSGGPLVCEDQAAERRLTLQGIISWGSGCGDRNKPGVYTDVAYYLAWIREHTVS

[1] = LGR2 antagonists, dose response, cell-based, HEK293, CRE-luciferase reporter, cherry pick, set 2 (AID 743343); assay type: functional;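 note: transfected cells were stimulated with diluted bursicon conditioned medium after compound addition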
[2] = biological target: T2, Microphthalmia-associated transcription factor (Homo sapiens, UniProt O75030); test: TRPM1 promoter luciferase signal decrease, dose response, MITF inhibitor project, cell-based, SK-MEL-5, cherry-picked, set 3 (AID 493073); assay type: functional
T2 sequence (O75030 whole entry): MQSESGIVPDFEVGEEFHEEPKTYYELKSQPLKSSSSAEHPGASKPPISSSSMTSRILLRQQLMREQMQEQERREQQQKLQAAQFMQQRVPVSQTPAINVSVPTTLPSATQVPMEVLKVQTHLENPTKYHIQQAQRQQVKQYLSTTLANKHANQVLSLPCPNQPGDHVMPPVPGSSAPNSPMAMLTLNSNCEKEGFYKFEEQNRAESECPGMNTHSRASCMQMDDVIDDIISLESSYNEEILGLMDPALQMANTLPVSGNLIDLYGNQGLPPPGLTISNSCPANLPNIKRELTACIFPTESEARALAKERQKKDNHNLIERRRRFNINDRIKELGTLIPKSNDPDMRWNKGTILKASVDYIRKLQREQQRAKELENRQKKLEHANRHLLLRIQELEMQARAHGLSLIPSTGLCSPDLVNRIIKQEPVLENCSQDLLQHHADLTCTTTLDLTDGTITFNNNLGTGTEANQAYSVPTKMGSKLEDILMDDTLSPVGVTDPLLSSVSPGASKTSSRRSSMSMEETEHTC

[3] = MC4R antagonists, dose response, counter-screen for LGR2 antagonist project, cell-based, plate reader, cherry pick (AID 743444); assay type: functional;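 note: transfected HEK 293 cells stimulated with alpha-MSH peptide; potency of inhibitors of the alpha-MSH evoked signal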
[4] = biological target: T3, Endoribonuclease toxin MazF (Escherichia coli K-12, UniProt P0AE70); test: fluorescent RNA oligo signal without MazF, dose response, counter-screen for MazEF activator project, biochemical, fluorescence, single-stranded RNase substrate (AID 588502); assay type: functional
T3 sequence (P0AE70 whole entry): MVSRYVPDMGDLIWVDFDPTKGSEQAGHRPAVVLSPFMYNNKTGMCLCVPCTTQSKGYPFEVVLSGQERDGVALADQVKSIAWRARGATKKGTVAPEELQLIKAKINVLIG

[5] = biological target: T3, Endoribonuclease toxin MazF; test: MazF toxin RNase activators, dose response, biochemical, fluorescence, single-stranded RNA substrate, uHTS hits (AID 588481); assay type: functional
[6] = Luminescence Cell-Based Dose Response HTS to Identify Inhibitors of 5'UTR Stem-Loop Driven Prion Protein mRNA Translation in H4 Neuroglioblastoma Cells. [Related pubchem assays: 1827 (Project Summary), 1813 (Primary HTS)]; assay type: functional
[7] = inhibitors of SNCA 5'UTR-driven reporter translation, confirmation, H4 neuroglioma cells, luminescence (AID 1988); assay type: functional, cell-based
[8] = inhibitors of firefly luciferase expression or activity, dose response, H4 neuroglioma cells, luminescence (AID 1990); assay type: functional, cell-based
[9] = inhibitors of Bluetongue virus cytopathic effect, confirmation, arbovirus, BSR cells (AID 1250); assay type: functional;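 note: protection from viral cytopathic effect measured as cell viability by ATP luminescence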
[10] = biological target: T4, Sentrin-specific protease 7 (Homo sapiens, UniProt Q9BQF6); assay type: functional;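 note: Luminescence-based dose-response confirmation of ultra-high-throughput screening hits, measuring inhibition of SENP7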
T4 sequence (Q9BQF6 whole entry): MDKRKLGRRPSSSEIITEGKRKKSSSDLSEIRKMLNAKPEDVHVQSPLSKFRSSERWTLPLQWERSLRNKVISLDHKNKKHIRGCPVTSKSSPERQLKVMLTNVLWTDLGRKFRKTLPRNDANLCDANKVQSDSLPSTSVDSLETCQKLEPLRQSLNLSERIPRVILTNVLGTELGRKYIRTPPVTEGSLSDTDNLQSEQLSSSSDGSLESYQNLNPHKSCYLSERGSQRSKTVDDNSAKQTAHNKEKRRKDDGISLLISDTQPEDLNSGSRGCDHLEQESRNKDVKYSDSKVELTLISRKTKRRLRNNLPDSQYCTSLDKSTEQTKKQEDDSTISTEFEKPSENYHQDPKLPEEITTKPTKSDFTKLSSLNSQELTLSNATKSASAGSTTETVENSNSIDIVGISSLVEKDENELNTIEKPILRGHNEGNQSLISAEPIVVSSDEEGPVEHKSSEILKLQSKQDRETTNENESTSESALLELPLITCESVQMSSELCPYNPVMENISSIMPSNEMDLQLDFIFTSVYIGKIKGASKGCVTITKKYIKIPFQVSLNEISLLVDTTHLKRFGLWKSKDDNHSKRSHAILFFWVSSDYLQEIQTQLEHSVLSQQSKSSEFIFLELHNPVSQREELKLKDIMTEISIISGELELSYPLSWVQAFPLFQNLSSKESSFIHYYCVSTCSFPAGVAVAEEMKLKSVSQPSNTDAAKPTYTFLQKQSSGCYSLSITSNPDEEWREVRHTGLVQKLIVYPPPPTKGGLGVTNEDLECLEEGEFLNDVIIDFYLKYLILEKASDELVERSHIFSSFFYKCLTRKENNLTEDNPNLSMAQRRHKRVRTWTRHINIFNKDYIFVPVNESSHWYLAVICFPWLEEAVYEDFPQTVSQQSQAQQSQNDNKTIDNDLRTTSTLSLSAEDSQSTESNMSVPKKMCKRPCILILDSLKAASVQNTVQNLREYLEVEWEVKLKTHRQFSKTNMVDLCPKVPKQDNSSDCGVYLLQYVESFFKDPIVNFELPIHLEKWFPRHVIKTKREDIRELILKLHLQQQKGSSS

[11] = biological target: T5, Sentrin-specific protease 8 (Homo sapiens, UniProt Q96LD8); assay type: functional;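 note: luminescence read-out of SENP8 inhibition, dose-response confirmation following an ultra-high-throughput screen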
T5 sequence (Q96LD8 whole entry): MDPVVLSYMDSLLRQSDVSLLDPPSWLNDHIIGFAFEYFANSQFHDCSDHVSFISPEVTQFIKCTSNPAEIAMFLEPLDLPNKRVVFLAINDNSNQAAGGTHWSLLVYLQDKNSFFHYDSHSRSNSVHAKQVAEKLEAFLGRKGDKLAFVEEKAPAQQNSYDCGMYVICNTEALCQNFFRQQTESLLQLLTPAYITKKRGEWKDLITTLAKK

Caspase-3 = biological target: T6, Caspase-3 (Homo sapiens, UniProt P42574); assay type: functional;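 note: Dose-response selectivity test against caspase-3 for candidate inhibitors of sentrin-specific proteases (SENPs)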
T6 sequence (P42574 whole entry): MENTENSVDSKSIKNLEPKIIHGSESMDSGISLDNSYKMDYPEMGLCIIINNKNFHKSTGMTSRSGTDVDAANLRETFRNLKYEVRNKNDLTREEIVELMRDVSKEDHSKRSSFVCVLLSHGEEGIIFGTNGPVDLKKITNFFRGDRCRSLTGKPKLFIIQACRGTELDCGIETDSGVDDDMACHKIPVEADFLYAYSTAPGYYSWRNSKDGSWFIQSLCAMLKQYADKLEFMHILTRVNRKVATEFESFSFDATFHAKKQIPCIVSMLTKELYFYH

[12] = biological target: T7, Sentrin-specific protease 6 (Homo sapiens, UniProt Q9GZR1); assay type: functional;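 note: Luminescence-based dose-response confirmatory assay of SENP6 inhibition, following up an ultra-high-throughput screen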
T7 sequence (Q9GZR1 whole entry): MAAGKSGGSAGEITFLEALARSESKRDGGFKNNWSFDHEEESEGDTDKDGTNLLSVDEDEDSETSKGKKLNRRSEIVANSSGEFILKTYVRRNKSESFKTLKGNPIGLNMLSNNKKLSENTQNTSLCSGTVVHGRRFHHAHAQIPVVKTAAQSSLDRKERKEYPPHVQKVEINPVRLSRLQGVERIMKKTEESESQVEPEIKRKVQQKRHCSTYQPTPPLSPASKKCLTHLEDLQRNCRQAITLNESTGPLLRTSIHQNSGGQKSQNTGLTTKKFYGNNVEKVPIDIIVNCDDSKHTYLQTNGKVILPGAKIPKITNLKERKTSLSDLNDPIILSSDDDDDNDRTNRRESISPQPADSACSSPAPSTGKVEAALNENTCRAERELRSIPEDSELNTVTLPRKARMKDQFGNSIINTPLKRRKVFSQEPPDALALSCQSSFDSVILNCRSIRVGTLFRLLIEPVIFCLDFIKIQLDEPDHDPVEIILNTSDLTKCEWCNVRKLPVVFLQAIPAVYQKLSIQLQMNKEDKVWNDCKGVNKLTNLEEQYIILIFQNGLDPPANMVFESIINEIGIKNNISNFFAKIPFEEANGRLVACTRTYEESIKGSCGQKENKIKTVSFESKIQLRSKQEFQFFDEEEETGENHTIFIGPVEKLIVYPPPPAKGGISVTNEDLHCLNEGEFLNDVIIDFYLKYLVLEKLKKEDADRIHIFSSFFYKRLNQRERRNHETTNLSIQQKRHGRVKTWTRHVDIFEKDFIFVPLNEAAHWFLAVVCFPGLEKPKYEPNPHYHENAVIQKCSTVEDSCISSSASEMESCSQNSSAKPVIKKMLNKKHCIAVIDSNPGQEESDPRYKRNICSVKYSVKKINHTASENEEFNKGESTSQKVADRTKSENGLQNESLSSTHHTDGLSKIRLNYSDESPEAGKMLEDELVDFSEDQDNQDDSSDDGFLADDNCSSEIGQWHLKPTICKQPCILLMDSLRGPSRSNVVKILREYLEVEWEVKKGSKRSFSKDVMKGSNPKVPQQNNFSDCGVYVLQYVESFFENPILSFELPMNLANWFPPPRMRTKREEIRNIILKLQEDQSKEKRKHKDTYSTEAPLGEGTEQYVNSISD

[13] = cytotoxicity in HEK-293T cells, dose response, cytotoxicity control for TCR NF-kB inhibitor project, luminescence, T-cell screen hits (AID 489026); assay type: functional, cell-based;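 note: cells exposed to compound about 14 hours before the viability readout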
Fatty acid synthase [14] = biological target: T8, Fatty acid synthase (Homo sapiens, UniProt P49327); test: FAS thioesterase domain inhibitors, dose response, biochemical, endpoint fluorescence intensity, uHTS hits (AID 624327); assay type: functional;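 note: fluorescence from hydrolysis of an O-methyl fluorescein acyl ester substrate by the enzyme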
T8 sequence (P49327 whole entry, the tested form may be a part): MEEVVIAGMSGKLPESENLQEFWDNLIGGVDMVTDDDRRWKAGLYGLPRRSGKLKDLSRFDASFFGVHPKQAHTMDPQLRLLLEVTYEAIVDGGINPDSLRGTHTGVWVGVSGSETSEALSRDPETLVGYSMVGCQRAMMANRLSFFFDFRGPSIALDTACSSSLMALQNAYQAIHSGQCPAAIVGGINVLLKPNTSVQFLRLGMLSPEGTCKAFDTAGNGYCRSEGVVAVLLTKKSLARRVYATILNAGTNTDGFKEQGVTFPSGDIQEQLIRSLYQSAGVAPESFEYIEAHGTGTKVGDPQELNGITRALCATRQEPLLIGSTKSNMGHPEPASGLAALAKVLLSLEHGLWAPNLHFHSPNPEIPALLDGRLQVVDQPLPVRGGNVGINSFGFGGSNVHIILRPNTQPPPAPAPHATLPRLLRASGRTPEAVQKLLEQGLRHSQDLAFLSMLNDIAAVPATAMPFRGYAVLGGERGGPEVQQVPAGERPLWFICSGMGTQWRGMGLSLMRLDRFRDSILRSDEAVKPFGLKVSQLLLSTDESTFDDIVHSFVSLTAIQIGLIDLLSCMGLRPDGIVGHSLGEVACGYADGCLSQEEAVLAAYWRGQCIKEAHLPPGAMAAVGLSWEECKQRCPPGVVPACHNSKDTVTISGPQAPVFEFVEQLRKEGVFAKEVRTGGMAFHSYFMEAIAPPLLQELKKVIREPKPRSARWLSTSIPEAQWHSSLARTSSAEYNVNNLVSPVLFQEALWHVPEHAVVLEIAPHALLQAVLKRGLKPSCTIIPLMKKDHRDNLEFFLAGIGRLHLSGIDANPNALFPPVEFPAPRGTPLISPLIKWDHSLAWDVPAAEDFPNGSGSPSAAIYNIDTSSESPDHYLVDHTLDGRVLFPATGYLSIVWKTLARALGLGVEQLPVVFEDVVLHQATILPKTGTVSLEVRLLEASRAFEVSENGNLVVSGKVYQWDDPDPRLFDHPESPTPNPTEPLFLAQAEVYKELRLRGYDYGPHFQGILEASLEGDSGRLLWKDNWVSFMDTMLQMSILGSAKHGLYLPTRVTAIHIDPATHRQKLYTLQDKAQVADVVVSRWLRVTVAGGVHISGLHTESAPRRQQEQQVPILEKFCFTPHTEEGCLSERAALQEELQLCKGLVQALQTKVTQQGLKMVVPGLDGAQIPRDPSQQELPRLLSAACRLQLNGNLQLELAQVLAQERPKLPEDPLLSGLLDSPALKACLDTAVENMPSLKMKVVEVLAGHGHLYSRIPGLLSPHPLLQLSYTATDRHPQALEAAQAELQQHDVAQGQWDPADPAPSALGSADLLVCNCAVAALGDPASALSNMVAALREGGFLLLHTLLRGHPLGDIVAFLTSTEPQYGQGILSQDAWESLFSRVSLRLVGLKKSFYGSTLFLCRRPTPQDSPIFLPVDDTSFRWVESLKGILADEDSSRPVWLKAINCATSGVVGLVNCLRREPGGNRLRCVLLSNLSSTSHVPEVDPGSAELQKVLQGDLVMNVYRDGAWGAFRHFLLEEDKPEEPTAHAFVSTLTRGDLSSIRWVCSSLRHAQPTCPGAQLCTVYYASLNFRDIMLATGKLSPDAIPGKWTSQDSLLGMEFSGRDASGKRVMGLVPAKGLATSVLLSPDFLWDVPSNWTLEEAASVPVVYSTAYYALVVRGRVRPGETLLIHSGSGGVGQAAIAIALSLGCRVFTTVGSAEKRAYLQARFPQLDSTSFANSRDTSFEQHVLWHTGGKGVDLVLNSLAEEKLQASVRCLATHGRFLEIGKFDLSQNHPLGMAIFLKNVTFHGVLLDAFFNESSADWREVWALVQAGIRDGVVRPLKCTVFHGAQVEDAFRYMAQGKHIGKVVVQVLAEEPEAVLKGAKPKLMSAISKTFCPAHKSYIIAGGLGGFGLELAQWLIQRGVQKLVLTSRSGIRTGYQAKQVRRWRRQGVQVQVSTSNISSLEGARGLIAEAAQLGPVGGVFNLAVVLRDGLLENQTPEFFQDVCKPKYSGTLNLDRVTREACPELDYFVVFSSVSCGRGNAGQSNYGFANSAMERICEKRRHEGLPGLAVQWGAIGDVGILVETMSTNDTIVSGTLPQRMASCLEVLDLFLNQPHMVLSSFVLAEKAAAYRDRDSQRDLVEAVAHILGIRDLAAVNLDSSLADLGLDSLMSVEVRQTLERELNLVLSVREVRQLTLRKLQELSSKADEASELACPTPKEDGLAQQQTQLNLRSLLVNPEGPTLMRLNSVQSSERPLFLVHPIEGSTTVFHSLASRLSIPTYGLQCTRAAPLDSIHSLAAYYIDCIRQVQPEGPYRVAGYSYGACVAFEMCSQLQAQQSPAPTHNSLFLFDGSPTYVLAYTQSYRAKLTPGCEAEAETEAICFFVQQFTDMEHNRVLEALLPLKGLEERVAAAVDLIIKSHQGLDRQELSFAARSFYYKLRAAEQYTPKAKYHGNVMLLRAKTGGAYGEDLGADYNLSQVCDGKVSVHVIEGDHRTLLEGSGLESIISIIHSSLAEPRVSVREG

Fatty acid synthase [15] = biological target: T8, Fatty acid synthase; test: FAS thioesterase domain inhibitors, dose response, biochemical, kinetic fluorescence intensity (AID 624326); assay type: functional;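 note: rate of fluorescence rise from hydrolysis of a fluorogenic O-methyl fluorescein ester substrate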
cells [16] = assay type: functional, cell-based
cells [17] = assay type: functional, cell-based; remark: listed apart in the source

COc1ccc(C(=O)CSc2nc3ccc[nH]c-3n2)cc1OC
IC50 (Coagulation factor XII): > 50 µM (inactive)

O=C(NC1CCCc2ccccc21)C1CCN(S(=O)(=O)c2ccccc2F)CC1 (stereo unspecified)
IC50 (Coagulation factor XII): > 50 µM (inactive)

CCOc1ccc(C(=O)Nc2cccc(C(=O)O)c2C)cc1Cl
AC50 [1]: 8.96 µM (active)
AC50 [2]: 8.56 µM (active)
AC50 [3]: 10.1 µM (active)

COc1cc2[nH]c(=O)n(Cc3ccc(C(=O)NC4CCCC4)cc3)c(=O)c2cc1OC
EC50 [4]: > 99 µM (inactive)
EC50 [5]: > 99 µM (inactive)

Cc1cc(C(=O)CN2C(=O)c3ccccc3S2(=O)=O)c(C)n1-c1ccccc1
EC50 [6]: 9.5 µM (active)
EC50 [7]: 5.88 µM (active)
EC50 [8]: 7.71 µM (active)
AC50 [2]: 3.45 µM (active)

Cc1cc(NC(=O)COC(=O)C2CCN(S(=O)(=O)c3c(Cl)cccc3Cl)CC2)no1
IC50 (Coagulation factor XII): > 50 µM (inactive)

O=C(Nc1nc2c(s1)CCCC2)c1ccc(Br)s1
IC50 [9]: 25.7 µM (active)
IC50 [10]: 4.82 µM (active)
IC50 [11]: 25.4 µM (active)
IC50 (Caspase-3): 24.9 µM (active)
IC50 [12]: 5.95 µM (active)

CCOc1ccc(-c2[nH]ncc2-c2ccc(OC)c(OC)c2)c(O)c1
IC50 [13]: 75.8 µM (inactive)

CCOc1cc(NC(=O)CCl)c(OCC)cc1NC(=O)CCl
AC50 [2]: 5.51 µM (active)

COc1ccc(NC(=O)Cn2nnc(-c3ccccc3NS(=O)(=O)c3ccc(OC)cc3)n2)cc1
IC50 [13]: > 80 µM (inactive)

O=Nc1ccc(NOC(=O)c2ccccc2)cc1
IC50 [10]: 8.98 µM (active)
IC50 [11]: > 100 µM (inactive)
IC50 (Caspase-3): 48.4 µM (active)
IC50 [12]: 21.7 µM (active)

O=C(O)c1ccc(Nc2nc3c(s2)CCCC3)cc1
AC50 [1]: 4.2 µM (active)
AC50 [2]: 6.49 µM (active)
AC50 [3]: 4.75 µM (active)

Cc1nonc1OC(C)CNCCNc1ccc([N+](=O)[O-])cc1 (stereo unspecified)
IC50 (Coagulation factor XII): > 50 µM (inactive)

O=C(C1CC(c2ccc(Cl)c(Cl)c2)=NO1)N1CCC2(CC1)OCCO2 (stereo unspecified)
IC50 (Fatty acid synthase [14]): 7.22 µM (active)
IC50 (Coagulation factor XII): > 50 µM (inactive)
IC50 (Fatty acid synthase [15]): 5.55 µM (active)

CCc1ccc(/C=N/NC(=O)c2cc(C3CC3)nc3ccccc23)s1
IC50 [13]: > 80 µM (inactive)

COc1cccc(/N=C/c2c(O)oc3ccccc3c2=O)c1
IC50 [10]: 14.2 µM (active)
IC50 [11]: > 100 µM (inactive)
IC50 (Caspase-3): > 100 µM (inactive)
IC50 [12]: > 100 µM (inactive)

O=[N+]([O-])c1ccc(N/N=C/c2ccccc2O)cc1
EC50 (cells [16]): > 350 µM (not active)
IC50 [10]: 4.9 µM (active)
IC50 [11]: 55.1 µM (active)
EC50 (cells [17]): 10.4 µM (active)
IC50 (Caspase-3): 31.1 µM (active)
IC50 [12]: 22.1 µM (active)

COc1ccc(/C=C2\CCc3ccccc3C2=O)cc1OC
IC50 [10]: 7.94 µM (active)
IC50 [11]: 22.1 µM (active)
IC50 (Caspase-3): 27.3 µM (active)
IC50 [12]: 15.8 µM (active)
